In assay [1] the target is T1, Phosphorylase b kinase gamma catalytic chain, liver/testis isoform (Homo sapiens) (UniProt P15735).
T1 sequence (whole entry): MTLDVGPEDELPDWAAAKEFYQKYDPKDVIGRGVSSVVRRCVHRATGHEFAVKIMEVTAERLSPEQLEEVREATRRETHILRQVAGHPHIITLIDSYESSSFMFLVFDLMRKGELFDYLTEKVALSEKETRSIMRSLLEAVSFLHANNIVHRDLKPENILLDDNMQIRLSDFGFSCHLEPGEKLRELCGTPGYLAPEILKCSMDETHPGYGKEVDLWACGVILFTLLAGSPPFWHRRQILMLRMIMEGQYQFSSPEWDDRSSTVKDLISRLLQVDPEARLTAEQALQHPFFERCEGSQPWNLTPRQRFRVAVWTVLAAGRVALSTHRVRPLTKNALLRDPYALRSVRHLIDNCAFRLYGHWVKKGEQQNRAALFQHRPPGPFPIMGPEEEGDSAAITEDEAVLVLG
As to the kind of experiment: Inhibition of human recombinant PHKg2 at 40 nM in presence of ATP by radiometric assay relative to control.

The target of assay [2] is Cyclin-dependent kinase 6 (Homo sapiens) (UniProt Q00534). Description: Inhibition of human recombinant CDK6 at 500 nM in presence of ATP by radiometric assay relative to control.
Cyclin-dependent kinase 6 (Homo sapiens), sequence (Q00534 whole entry): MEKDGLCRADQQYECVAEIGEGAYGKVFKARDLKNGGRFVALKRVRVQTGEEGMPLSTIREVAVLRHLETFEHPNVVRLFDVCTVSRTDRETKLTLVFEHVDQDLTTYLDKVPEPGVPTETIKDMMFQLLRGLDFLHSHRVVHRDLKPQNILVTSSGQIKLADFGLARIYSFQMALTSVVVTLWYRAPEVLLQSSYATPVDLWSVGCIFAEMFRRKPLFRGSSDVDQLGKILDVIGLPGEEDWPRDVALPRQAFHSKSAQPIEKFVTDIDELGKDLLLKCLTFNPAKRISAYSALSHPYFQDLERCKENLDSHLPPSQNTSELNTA
Assay [3] deals with T2, Mitogen-activated protein kinase 12 (Homo sapiens) (UniProt P53778).
T2 sequence (whole entry): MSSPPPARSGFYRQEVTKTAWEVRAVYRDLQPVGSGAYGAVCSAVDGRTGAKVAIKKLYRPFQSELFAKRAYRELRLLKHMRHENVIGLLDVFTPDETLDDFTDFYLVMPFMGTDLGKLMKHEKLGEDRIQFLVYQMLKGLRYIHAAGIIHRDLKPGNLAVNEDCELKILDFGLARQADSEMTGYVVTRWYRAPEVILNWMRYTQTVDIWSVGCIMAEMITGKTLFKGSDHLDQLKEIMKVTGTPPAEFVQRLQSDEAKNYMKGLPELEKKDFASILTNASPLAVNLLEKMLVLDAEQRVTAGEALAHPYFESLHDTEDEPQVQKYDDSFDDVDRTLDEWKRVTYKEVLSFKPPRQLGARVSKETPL
As to the kind of experiment: Inhibition of human recombinant p38gamma at 500 nM in presence of ATP by radiometric assay relative to control.

In assay [4] the target is Ribosomal protein S6 kinase alpha-2 (Homo sapiens) (UniProt Q15349). Description: Inhibition of human recombinant RSK3 at 500 nM in presence of ATP by radiometric assay relative to control.
Ribosomal protein S6 kinase alpha-2 (Homo sapiens), sequence (Q15349 whole entry): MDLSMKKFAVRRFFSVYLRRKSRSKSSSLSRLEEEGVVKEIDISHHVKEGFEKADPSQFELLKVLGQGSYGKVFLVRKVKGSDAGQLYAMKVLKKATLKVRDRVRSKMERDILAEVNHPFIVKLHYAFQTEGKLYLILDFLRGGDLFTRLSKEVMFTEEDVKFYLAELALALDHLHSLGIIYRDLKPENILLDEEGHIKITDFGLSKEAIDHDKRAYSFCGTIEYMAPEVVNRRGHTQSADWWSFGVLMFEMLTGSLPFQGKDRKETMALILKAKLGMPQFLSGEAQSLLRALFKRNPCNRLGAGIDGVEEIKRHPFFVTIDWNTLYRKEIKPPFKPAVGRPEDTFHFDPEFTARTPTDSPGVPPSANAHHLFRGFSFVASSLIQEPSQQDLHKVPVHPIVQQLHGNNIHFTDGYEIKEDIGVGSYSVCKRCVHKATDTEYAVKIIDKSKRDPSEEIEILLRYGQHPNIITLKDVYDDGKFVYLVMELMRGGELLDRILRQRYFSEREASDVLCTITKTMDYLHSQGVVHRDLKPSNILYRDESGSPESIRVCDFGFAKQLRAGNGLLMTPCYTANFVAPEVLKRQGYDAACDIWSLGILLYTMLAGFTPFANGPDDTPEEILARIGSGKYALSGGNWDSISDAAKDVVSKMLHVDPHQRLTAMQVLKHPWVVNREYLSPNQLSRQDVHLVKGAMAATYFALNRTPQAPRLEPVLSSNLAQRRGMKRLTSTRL
Assay [5] addresses Fibroblast growth factor receptor 3 (Homo sapiens) (UniProt P22607). As to the kind of experiment: Inhibition of human recombinant FGFR3 at 500 nM related to control ULK1.
The target of assay [6] is Protein kinase C beta type (Homo sapiens) (UniProt P05771). Description: Inhibition of human recombinant PKCb at 500 nM related to control ULK1.
Protein kinase C beta type (Homo sapiens), sequence (P05771 2-671 limits assumed): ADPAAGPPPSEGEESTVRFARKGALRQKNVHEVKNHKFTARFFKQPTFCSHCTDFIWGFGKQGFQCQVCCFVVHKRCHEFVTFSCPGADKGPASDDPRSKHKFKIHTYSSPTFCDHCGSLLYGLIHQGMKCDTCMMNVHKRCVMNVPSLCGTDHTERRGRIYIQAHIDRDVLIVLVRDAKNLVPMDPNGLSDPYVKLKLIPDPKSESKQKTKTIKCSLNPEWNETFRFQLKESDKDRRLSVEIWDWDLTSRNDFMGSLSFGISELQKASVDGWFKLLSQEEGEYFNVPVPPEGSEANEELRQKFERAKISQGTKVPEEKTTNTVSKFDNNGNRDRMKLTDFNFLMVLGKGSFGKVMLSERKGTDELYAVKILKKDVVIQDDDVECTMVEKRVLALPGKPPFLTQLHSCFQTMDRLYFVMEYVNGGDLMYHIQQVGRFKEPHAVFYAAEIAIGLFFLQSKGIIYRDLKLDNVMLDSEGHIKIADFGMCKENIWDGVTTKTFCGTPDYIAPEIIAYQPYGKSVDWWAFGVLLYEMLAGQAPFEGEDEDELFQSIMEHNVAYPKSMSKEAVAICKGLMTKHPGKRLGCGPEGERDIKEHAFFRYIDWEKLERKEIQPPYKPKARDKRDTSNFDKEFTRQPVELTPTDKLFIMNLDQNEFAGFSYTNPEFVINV
For assay [7], the target named is T3, Tyrosine-protein kinase ZAP-70 (Homo sapiens) (UniProt P43403).
T3 sequence (whole entry): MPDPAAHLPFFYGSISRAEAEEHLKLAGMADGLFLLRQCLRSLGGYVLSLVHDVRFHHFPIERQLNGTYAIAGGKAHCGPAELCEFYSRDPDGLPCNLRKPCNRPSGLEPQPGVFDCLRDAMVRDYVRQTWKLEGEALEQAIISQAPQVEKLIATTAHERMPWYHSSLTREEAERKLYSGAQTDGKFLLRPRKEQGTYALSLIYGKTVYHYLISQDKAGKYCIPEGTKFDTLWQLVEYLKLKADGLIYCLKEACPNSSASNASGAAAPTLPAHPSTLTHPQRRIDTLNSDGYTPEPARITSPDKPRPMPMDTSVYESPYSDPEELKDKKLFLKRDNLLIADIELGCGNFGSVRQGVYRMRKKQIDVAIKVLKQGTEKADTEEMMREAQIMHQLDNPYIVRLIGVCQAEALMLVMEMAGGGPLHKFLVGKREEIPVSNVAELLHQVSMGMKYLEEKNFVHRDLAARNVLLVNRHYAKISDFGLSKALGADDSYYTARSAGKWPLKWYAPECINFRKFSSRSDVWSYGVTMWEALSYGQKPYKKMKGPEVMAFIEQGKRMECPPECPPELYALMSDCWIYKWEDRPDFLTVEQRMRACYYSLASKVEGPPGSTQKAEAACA
Description: Inhibition of human recombinant ZAP70 at 500 nM related to control ULK1.

Assay [8] deals with Protein kinase C gamma type (Homo sapiens) (UniProt P05129). Description: Inhibition of human recombinant PKCg at 15 nM in presence of ATP by radiometric assay relative to control.
Assay [9] concerns the target Insulin receptor-related protein (Homo sapiens) (UniProt P14616). Description: Inhibition of human recombinant IRR at 15 nM related to control ULK1.
The target in assay [10] is T4, Protein kinase C epsilon type (Homo sapiens) (UniProt Q02156).
T4 sequence (whole entry): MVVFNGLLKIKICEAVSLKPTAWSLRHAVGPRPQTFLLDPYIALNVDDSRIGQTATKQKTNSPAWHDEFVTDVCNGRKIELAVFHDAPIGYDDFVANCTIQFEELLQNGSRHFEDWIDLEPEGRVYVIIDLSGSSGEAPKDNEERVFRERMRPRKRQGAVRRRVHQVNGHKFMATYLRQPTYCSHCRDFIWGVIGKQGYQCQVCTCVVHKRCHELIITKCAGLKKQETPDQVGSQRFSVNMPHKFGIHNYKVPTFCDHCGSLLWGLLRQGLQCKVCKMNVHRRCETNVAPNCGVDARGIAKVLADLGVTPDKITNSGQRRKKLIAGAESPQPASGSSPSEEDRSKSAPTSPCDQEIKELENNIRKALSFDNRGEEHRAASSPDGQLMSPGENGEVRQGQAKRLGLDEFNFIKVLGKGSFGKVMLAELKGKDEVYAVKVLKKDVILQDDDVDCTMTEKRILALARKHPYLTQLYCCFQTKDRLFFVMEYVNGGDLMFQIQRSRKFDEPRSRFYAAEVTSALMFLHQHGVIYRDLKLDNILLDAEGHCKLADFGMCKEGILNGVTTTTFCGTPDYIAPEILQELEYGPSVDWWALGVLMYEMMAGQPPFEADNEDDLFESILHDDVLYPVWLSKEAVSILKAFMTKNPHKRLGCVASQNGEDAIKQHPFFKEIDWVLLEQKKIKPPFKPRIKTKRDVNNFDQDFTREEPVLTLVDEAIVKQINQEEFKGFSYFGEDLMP
Description: Inhibition of human recombinant PKCe at 15 nM related to control ULK1.

Broadly, the inhibition is the percentage by which the read-out fell short of the control.

Insulin receptor-related protein (Homo sapiens), sequence (P14616 27-742 limits assumed): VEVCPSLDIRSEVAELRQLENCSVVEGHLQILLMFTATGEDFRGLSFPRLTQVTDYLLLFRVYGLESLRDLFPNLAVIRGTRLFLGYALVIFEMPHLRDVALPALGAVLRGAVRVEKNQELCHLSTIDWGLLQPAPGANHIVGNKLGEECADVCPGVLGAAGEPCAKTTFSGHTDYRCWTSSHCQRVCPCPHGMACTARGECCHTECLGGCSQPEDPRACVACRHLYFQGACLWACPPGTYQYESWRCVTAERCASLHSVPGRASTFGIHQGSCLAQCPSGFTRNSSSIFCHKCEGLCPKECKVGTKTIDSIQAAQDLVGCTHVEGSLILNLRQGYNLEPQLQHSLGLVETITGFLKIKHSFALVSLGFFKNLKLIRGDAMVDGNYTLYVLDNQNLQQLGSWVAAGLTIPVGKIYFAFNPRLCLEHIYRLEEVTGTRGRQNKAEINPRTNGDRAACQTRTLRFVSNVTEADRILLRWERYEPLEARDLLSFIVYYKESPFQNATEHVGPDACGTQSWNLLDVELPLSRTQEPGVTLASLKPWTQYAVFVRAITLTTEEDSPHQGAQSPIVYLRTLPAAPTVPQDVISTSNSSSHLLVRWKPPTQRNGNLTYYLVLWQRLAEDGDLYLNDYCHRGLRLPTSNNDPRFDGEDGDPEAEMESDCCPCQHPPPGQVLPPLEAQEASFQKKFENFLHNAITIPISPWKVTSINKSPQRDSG
Insulin receptor-related protein (Homo sapiens), sequence (P14616 747-1297 limits assumed): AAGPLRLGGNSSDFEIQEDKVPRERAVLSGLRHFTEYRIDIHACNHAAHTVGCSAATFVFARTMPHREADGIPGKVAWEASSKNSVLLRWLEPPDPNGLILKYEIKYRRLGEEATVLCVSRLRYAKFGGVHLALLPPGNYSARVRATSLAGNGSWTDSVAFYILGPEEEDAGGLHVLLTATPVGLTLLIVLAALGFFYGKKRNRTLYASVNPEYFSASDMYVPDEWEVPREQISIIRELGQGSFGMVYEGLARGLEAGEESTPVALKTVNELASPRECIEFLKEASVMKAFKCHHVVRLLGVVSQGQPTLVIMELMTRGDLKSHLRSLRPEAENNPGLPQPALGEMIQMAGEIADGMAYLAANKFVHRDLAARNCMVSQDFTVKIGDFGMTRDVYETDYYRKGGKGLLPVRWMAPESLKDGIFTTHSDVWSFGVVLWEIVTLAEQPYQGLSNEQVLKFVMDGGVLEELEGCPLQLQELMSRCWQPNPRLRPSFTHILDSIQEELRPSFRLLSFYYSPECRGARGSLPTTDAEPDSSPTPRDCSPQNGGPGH
Fibroblast growth factor receptor 3 (Homo sapiens), sequence (P22607 23-806 limits assumed): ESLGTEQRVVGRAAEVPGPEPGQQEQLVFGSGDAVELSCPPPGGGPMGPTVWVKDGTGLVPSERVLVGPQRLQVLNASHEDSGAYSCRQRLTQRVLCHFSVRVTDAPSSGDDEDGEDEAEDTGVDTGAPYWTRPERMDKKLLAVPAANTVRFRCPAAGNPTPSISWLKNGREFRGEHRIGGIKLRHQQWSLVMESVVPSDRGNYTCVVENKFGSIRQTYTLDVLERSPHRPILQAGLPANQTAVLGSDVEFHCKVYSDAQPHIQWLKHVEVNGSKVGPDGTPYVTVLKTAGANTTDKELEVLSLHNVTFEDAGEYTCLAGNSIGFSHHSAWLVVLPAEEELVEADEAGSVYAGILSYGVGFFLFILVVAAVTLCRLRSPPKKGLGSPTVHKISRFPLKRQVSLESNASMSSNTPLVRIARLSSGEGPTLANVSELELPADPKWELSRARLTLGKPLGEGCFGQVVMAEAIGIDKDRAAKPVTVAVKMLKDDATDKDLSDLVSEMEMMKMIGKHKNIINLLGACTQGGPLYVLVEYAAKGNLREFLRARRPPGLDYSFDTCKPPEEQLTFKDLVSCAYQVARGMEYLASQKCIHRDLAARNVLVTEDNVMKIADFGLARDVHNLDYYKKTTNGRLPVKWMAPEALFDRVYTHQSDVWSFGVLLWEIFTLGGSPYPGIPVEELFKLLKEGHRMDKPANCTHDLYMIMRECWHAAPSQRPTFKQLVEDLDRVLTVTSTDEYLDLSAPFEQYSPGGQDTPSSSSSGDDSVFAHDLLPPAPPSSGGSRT

For the molecule `O=C(N[C@@H](C1CC1)C(F)(F)F)c1cc(-c2cnn3cc(-c4ccc(F)cc4)cnc23)cs1`, the inhibition in assay [1] turned out to be 0%.
Consider `CNC(=O)c1ccccc1Oc1nc(Nc2cc(OC)c(OC)c(OC)c2)ncc1Br`, for which the values for the inhibition in assay [2], in [3] and in assay [4] were 0%, 0% and 49%, respectively. Further, the fold change (FC) is 0.57 in [5], 0.09 in [6] and 0.01 in assay [7].
Turning to `CC(C)[C@H](NC(=O)c1cc(-c2cnn3cc(-c4ccc(OCCN5CCCCC5)cc4)cnc23)cs1)C(F)(F)F`, the inhibition in assay [8] stood at 0%. Further, the fold change (FC) was determined as 0.02 in assay [9] and 0 in assay [10].

For the origin of these results see ChEMBL document CHEMBL5653631, “A Potent and Selective ULK1 Inhibitor Suppresses Autophagy and Sensitizes Cancer Cells to Nutrient Stress” (iScience, 2018).
